{
  "source": "patent US11385234B2",
  "about": "“Methods and systems for detecting an analyte or classifying a sample” (Commonwealth Scientific and Industrial Research Organisation, priority 2012, dated 2022)",
  "key": {"GFP^2—MBP—RLuc2": {"target": "GFP^2—MBP—RLuc2 (Escherichia coli, UniProt P0AEX9)", "test": "BRET^2 tagged MBP sugar assay, plate reader", "type": "binding", "details": "0.1 mM sugar, 30 minutes at 28° C., 1 μM protein", "description": "1 μM purified protein was used for all the energy transfer assays (final volume of 100 μL). […] Purified protein was incubated with the sugar dissolved in double deionised water or water for 30 minutes at 28° C.\nBRET ratios were calculated as the ratio of maximum acceptor emission intensity to maximum donor emission intensity.\nAll data analysis was carried out using GraphPad Prism (version 5 for Windows, Graphpad Software, San Diego, Calif., USA). All data will be reported as means± standard deviation (SD) unless otherwise stated in the text. Two-tailed unpaired t-tests will be performed using Graphpad prism. Statistical significance is defined as p<0.05."}, "thrombin": {"target": "T1, thrombin (Bos taurus, UniProt P00735)", "T1 construct": "purchased Amersham Biosciences", "test": "Hirudin pre-incubation in thrombin cleavage assay of GFP^2-RG-RLuc (BRET^H ratio, SDS-PAGE)", "type": "biochemical", "description": "Various concentrations of thrombin were added to purified GFP^2-RG-RLuc biosensor and incubated at 30° C. for 90 minutes. To measure the extent of thrombin cleavage the sample mixture following incubation and the native CLZ solution were pumped from separate syringes into the two inlet channels and allowed to flow through the main channel. Diffusion between the two streams induced a BRET reaction at the interface. Recombinant hirudin from yeast (Sigma) was incubated with thrombin at room temperature for ten minutes prior to the protease assay.\nTo confirm complete thrombin cleavage of the GFP^2-RG-RLuc biosensor, SDS-PAGE analysis was carried out. Proteins (2.5 μg) were diluted in 1× sample loading buffer (Invitrogen) for SDS-gel electrophoresis in a 12% Bis-Tris gel with MOPS running buffer (NuPAGE, Invitrogen). Bands were stained with Fast Stain™ (Fisher) and then visualised.\nUsing the microplate spectrometer, hybrid BRET ratios were calculated as the ratio of bioluminescence emissions measured at 500 nm and 470 nm. Using the microchip system, the hybrid BRET ratio was calculated as ratio of the long wavelength emission (515 nm-555 nm) to the short wavelength emission (430 nm-455 nm) (Pfleger and Eidne, 2006). To allow comparison between the two different detection systems, the Hybrid BRET ratios were normalized by expressing them as a multiple of the BRET ratio without added thrombin, in the same measurement system. All data are reported as means±standard deviation (SD). Two-tailed unpaired t-tests were performed using Graphpad prism (version 5.00 for Windows, Graphpad Software, San Diego, Calif., USA). Statistical significance is defined as p<0.05."}},
  "data": [
    {"compound": "O=C(CO)[C@@H](O)[C@H](O)[C@H](O)CO", "note": "[fructose]", "values": [
      {"measurement": "response of BRET biosensor to sugar", "setting": "GFP^2—MBP—RLuc2", "result": "did not respond"}
    ]},
    {"compound": "OC[C@H]1O[C@H](OC[C@H]2O[C@H](O[C@]3(CO)O[C@H](CO)[C@@H](O)[C@@H]3O)[C@H](O)[C@@H](O)[C@@H]2O)[C@H](O)[C@@H](O)[C@H]1O", "note": "[raffinose]", "values": [
      {"measurement": "response of BRET biosensor to sugar", "setting": "GFP^2—MBP—RLuc2", "result": "did not respond"}
    ]},
    {"compound": "hirudin", "values": [
      {"measurement": "BRET^H ratio with pre-addition of hirudin", "setting": "thrombin; 54 nM thrombin pre-treated with 2 units hirudin, 10 minutes, room temperature", "result": "1.08±0.14"},
      {"measurement": "effect of hirudin on thrombin induced reduction in BRET^H ratio", "setting": "thrombin; 2 units hirudin, 10 minutes, room temperature", "result": "prevented the thrombin induced reduction"},
      {"measurement": "effect of hirudin on cleavage of fusion protein, SDS-PAGE", "setting": "thrombin; 2 units hirudin, SDS-PAGE lane 6", "result": "inhibited the formation of the two components"}
    ]},
    {"compound": "maltotriose", "values": [
      {"measurement": "amplitude of the change in BRET ratio", "setting": "GFP^2—MBP—RLuc2", "result": 17.03, "unit": "%"}
    ]}
  ]
}
